≈ marks a conversion by molar mass, not a printed value. Read-outs that look alike come from different tables or passages of the source. Ends that are not written are not given here. Where only a bound is given, the exact number is not on record here.

For series [1] the following is noted: 64 µM in PBS pH 7.4, 25, 45, 65, 85°C and 37°C, shaking 600 rpm, HPLC-DAD 280 nm, tryptophan internal standard, duplicate. As to the method: Peptides were dissolved in phosphate-buffered saline (PBS, pH 7.0) and 10% SDS solution. The peptide concentration was determined by direct weighing and mixing. The secondary structure was analyzed using a circular dichroism (CD) spectrometer. Peptides (64 µM) were dissolved in PBS (pH 7.4) with tryptophan as an internal standard. The solution was incubated at 25°C, 45°C, 65°C, and 85°C with shaking at 600 rpm. Peptide quantification was performed using HPLC-DAD at 280 nm with an injection volume of 20 µL. Each experiment was conducted in duplicate, and data were processed using Excel based on peak areas of tryptophan and peptide. Peptides (40 µM) were dissolved in PBS (pH 8.0) and incubated with 0.0005% trypsin at 37°C under shaking (600 rpm). Samples were collected at 0, 15, and 30 minutes and analyzed by HPLC-DAD at 280 nm with an injection volume of 40 µL [20, 21].

The next series relates to Pseudomonas aeruginosa. It counts as cell-based. Conditions: 24 h. The protocol:
(§1) Bacteria (S. aureus, P. aeruginosa, S. epidermidis, E. coli, K. pneumoniae, Enterococcus) and Candida albicans from ATCC were cultured in appropriate media, adjusted to 10^6 CFU/mL before testing. The bacteria and fungal, taken from a deep freezer, were revived by culturing them in a nutrient-rich medium, to grow and form distinct colonies. These colonies were then diluted with physiological saline to reach a turbidity equivalent to 0.5 McFarland, corresponding to a bacterial and fungal concentration of 10⁸ CFU/mL. This suspension was further diluted with 0.9% saline to achieve a concentration of 10⁶ CFU/mL. Subsequently, the bacterial and fungal suspension were diluted 100-fold in Brain-Heart Infusion (BHI) broth to achieve a final concentration of 10⁴ CFU/mL. This bacterial and fungal suspension were used to determine the MIC values in the experiments. Peptides (IND and IND-4,11K) were diluted by 2-fold serial dilution in the range of […] and tested in 96-well plates containing Muller-Hinton (MH) medium. After adding bacteria (10^4 CFU/mL), the samples were incubated at 37°C for 24 h. MIC was determined as the lowest peptide concentration at which no bacterial growth was observed by measuring the optical density OD620 nm. […] The positive controls were Streptomycin for Gram-negative bacteria and Penicillin for Gram-positive bacteria. The negative control was 1X PBS solution. The positive control for antifungal activity was Nystatin.All experiments were performed in triplicate.

Another series deals with Candida albicans. Type of series: cell-based. Conditions: 24 h. The protocol: as §1
The subject of another series is Enterococcus faecium. It counts as cell-based. Conditions: 24 h. As to the method: as §1
Another series concerns Klebsiella pneumoniae. It counts as cell-based. Conditions: 24 h. As to the method: as §1
The next series relates to Staphylococcus aureus. Type of series: cell-based. Conditions: 24 h. As to the method:
as §1

The test system of series [2] is Staphylococcus epidermidis. Type of series: cell-based. Conditions: 24 h. As to the method:
as §1

Series [3] concerns S. aureus, S. epidermidis, E. coli, K. pneumoniae, E. faecium, and P. aeruginosa. Type of series: cell-based. Conditions: Staphylococcus aureus, Staphylococcus epidermidis and Enterococcus faecium. As to the method: as §1
For the next series, the system named is trypsin. Briefly: Enzymatic stability with trypsin. It counts as in vitro ADME. Conditions: 40 µM in PBS pH 8.0, 0.0005% trypsin, 37°C, 600 rpm, 15 and 30 minutes, HPLC-DAD 280 nm, duplicate.
A further series deals with red blood cell. Nature of the series: Hemolysis assay. It counts as cell-based. The source says: The hemolysis assay results indicated a concentration-dependent effect of the peptides on red blood cell membrane integrity.
[4] abbreviates: broth dilution, 96-well, MH medium, 10^4 CFU/mL, 37°C, OD620, triplicate.
Where [5] appears, read: plated from MIC well and higher onto MH agar, triplicate.

As a reminder, the MIC is the lowest concentration that inhibits growth of the organism. For `CC[C@H](C)[C@H](N)C(=O)N[C@@H](CC(C)C)C(=O)N1CCC[C@H]1C(=O)N[C@@H](Cc1c[nH]c2ccccc12)C(=O)N[C@@H](CCCCN)C(=O)N[C@@H](Cc1c[nH]c2ccccc12)C(=O)N1CCC[C@H]1C(=O)N[C@@H](Cc1c[nH]c2ccccc12)C(=O)N[C@@H](Cc1c[nH]c2ccccc12)C(=O)N1CCC[C@H]1C(=O)N[C@@H](Cc1c[nH]c2ccccc12)C(=O)N[C@@H](CCCNC(=N)N)C(=O)N[C@@H](CCCNC(=N)N)C(N)=O` [IND, Indolicidin], the “Thermal stability (retention time and peak area)” value in [1] was “remained largely unchanged”. For the same compound, the minimal inhibitory concentration (MIC) in the series with Pseudomonas aeruginosa (setting [4]) is more than 128 µM; with Candida albicans (setting [4]), 64 µM (≈ 122 µg/mL); with Enterococcus faecium (setting [4]) it was 32 µM (≈ 61 µg/mL); against Klebsiella pneumoniae (setting [4]), more than 128 µM; with Staphylococcus aureus (setting [4]), 64 µM (≈ 122 µg/mL); in [2] (setting [4]) it was 8 µM (≈ 15.3 µg/mL). Further, the MBC in the series on Pseudomonas aeruginosa (setting [5]) was more than 128 µM; in the series with Candida albicans (setting [5]) it was more than 128 µM; against Enterococcus faecium (setting [5]), 32 µM (≈ 61 µg/mL); against Klebsiella pneumoniae (setting [5]), more than 128 µM; in the series with Staphylococcus aureus (setting [5]), 64 µM (≈ 122 µg/mL); in series [2] (setting [5]), 8 µM (≈ 15.3 µg/mL). For the same compound, the “MIC (range over organisms)” value in [3] was 8 to 64 µM. The “Enzymatic stability with trypsin” value in the series with trypsin is “significant degradation”. In addition, the Hemolysis activity in the series with red blood cell (peptide 2 uM) is listed as 3.04 ± 0.29%; in the series on red blood cell (peptide 4 uM), 2.51 ± 0.24%; in the series on red blood cell (peptide 8 uM), 3.05 ± 0.34%; with red blood cell (peptide 16 uM), 4.89 ± 0.03%; in the series on red blood cell (peptide 32 uM), 10.33 ± 1.06%; with red blood cell (peptide 64 uM), 18.09 ± 1.57%. The Hemolysis activity in the series with red blood cell (peptide 128 uM) is reported as 30.91 ± 2.27%.

ILKWKWPWWKWRR-NH2 [IND-4,11K]: the “Thermal stability (retention time and peak area)” value in [1] is on record as “remained largely unchanged”. The MBC was determined as 128 µM with Pseudomonas aeruginosa; 32 µM in the series with Candida albicans; 32 µM in the series on Enterococcus faecium; 128 µM against Klebsiella pneumoniae; 48 µM in the series with Staphylococcus aureus; 8 µM in [2]. Besides, the MIC against Pseudomonas aeruginosa was 128 µM; in the series on Candida albicans it was 32 µM; with Enterococcus faecium it was 32 µM; against Klebsiella pneumoniae it was 128 µM; with Staphylococcus aureus, 48 µM; in series [2], 8 µM. The “Enzymatic stability with trypsin” value in the series with trypsin was “significant degradation”.

(Values after PMC12412968, “Indolicidin derivatives as potent dual-action antifungal and antibacterial agents for the treatment of skin infections: A comprehensive study from in vitro to in vivo evaluation” (PLOS One, 2025).)
